Reference: PubChem BioAssay AID256 (DTP/NCI, 2004)
Values joined by “and” are separate entries in the source; they are usually repeats but may differ in a detail not shown here. Identical values can stand only once. Toxic doses and inconclusive results are not listed.

Test system: CD2F1 mice, L1210 leukemia ip, survival T/C
Assay: NCI In Vivo Anticancer Drug Screen. Data for tumor model L1210 Leukemia (intraperitoneal) in CD2F1 (CDF1) mice
Conditions: higher = longer survival
Procedure, shortened: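 Tumor-bearing mice (transplanted tumor) were split into treated and vehicle control groups, and the measured endpoint of each treated group was divided by that of its vehicle controls.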

[1] = endpoint: mean survival time, dose: 50.0 mg/kg/injection, schedule: Q01DX009 (ip), vehicle: saline with Tween-80
[2] = endpoint: mean survival time, dose: 100.0 mg/kg/injection, schedule: Q01DX009 (ip), vehicle: saline with Tween-80
[3] = endpoint: mean survival time, dose: 100.0 mg/kg/injection, schedule: Q01DX001 (ip), vehicle: saline with Tween-80
[4] = endpoint: mean survival time, dose: 200.0 mg/kg/injection, schedule: Q01DX001 (ip), vehicle: saline with Tween-80
[5] = endpoint: mean survival time, dose: 400.0 mg/kg/injection, schedule: Q01DX001 (ip), vehicle: saline with Tween-80
[6] = endpoint: mean survival time, dose: 100.0 mg/kg/injection, schedule: Q04DX002 (ip), vehicle: saline
[7] = endpoint: mean survival time, dose: 200.0 mg/kg/injection, schedule: Q04DX002 (ip), vehicle: saline
[8] = endpoint: mean survival time, dose: 100.0 mg/kg/injection, schedule: Q04DX003 (ip), vehicle: saline with Tween-80
[9] = endpoint: mean survival time, dose: 200.0 mg/kg/injection, schedule: Q04DX003 (ip), vehicle: saline with Tween-80
[10] = endpoint: mean survival time, dose: 400.0 mg/kg/injection, schedule: Q04DX003 (ip), vehicle: saline with Tween-80
[11] = endpoint: mean survival time, dose: 100.0 mg/kg/injection, schedule: Q01DX009 (ip), vehicle: saline
[12] = endpoint: mean survival time, dose: 100.0 mg/kg/injection, schedule: Q04DX002 (ip), vehicle: saline with Tween-80
[13] = endpoint: mean survival time, dose: 200.0 mg/kg/injection, schedule: Q04DX002 (ip), vehicle: saline with Tween-80
[14] = endpoint: mean survival time, dose: 400.0 mg/kg/injection, schedule: Q04DX002 (ip), vehicle: saline with Tween-80
[15] = endpoint: mean survival time, dose: 100.0 mg/kg/injection, schedule: Q01DX001 (ip), vehicle: saline
[16] = endpoint: mean survival time, dose: 200.0 mg/kg/injection, schedule: Q01DX001 (ip), vehicle: saline
[17] = endpoint: mean survival time, dose: 400.0 mg/kg/injection, schedule: Q01DX001 (ip), vehicle: saline

SMILES: C=C(C)CC(O)CCCCCC (configuration not stated)
- T/C [1]: 98 % of control
- T/C [2]: 110 % of control
- T/C (endpoint: mean survival time, dose: 200.0 mg/kg/injection, schedule: Q01DX009 (ip), vehicle: saline with Tween-80): 107 % of control

SMILES: CC(S(N)(=O)=O)S(N)(=O)=O
- T/C [3]: 105 % of control
- T/C [4]: 102 % of control
- T/C [5]: 94 % of control

SMILES: NC(=S)c1ncn(C2OC(CO)C(O)C2O)c1N (configuration not stated)
- T/C [6]: 115 % of control
- T/C [7]: 110 % of control
- T/C (endpoint: median survival time, dose: 25.0 mg/kg/injection, schedule: Q01DX005 (ip), vehicle: saline with Tween-80): 111 % of control
- T/C (endpoint: median survival time, dose: 25.0 mg/kg/injection, schedule: Q01DX005 (ip), vehicle: saline): 113 % of control
- T/C (endpoint: median survival time, dose: 25.0 mg/kg/injection, schedule: Q01DX009 (ip), vehicle: saline with Tween-80): 122 % of control
- T/C (endpoint: median survival time, dose: 25.0 mg/kg/injection, schedule: Q01DX009 (ip), vehicle: saline): 115 % of control
- T/C (endpoint: median survival time, dose: 50.0 mg/kg/injection, schedule: Q01DX005 (ip), vehicle: saline with Tween-80): 120 % of control
- T/C (endpoint: median survival time, dose: 100.0 mg/kg/injection, schedule: Q01DX005 (ip), vehicle: saline): 166 % of control
- T/C (endpoint: median survival time, dose: 100.0 mg/kg/injection, schedule: Q01DX009 (ip), vehicle: saline with Tween-80): 160 % of control
- T/C (endpoint: median survival time, dose: 200.0 mg/kg/injection, schedule: Q01DX005 (ip), vehicle: saline with Tween-80): 171 % of control
- T/C (endpoint: median survival time, dose: 200.0 mg/kg/injection, schedule: Q01DX005 (ip), vehicle: saline): 166 % of control
- T/C (endpoint: median survival time, dose: 200.0 mg/kg/injection, schedule: Q01DX009 (ip), vehicle: saline with Tween-80): 159 % of control
- T/C (endpoint: median survival time, dose: 200.0 mg/kg/injection, schedule: Q01DX009 (ip), vehicle: saline): 157 % of control
- T/C (endpoint: median survival time, dose: 400.0 mg/kg/injection, schedule: Q01DX005 (ip), vehicle: saline with Tween-80): 161 % of control
- T/C (endpoint: median survival time, dose: 400.0 mg/kg/injection, schedule: Q01DX005 (ip), vehicle: saline): 180 % of control
- T/C (endpoint: median survival time, dose: 400.0 mg/kg/injection, schedule: Q01DX009 (ip), vehicle: saline with Tween-80): 160 % of control
- T/C (endpoint: median survival time, dose: 400.0 mg/kg/injection, schedule: Q01DX009 (ip), vehicle: saline): 155 % of control

SMILES: O=NN(CCCl)C(=O)NCc1ccc[n+]([O-])c1
- T/C (endpoint: mean survival time, dose: 6.25 mg/kg/injection, schedule: Q01DX001 (ip), vehicle: water): 152 % of control and 167 % of control
- T/C (endpoint: mean survival time, dose: 12.5 mg/kg/injection, schedule: Q01DX001 (ip), vehicle: water): 274 % of control and 290 % of control
- T/C (endpoint: mean survival time, dose: 25.0 mg/kg/injection, schedule: Q01DX001 (ip), vehicle: water): 309 % of control and 324 % of control

SMILES: Nc1ccc(CCCCc2nc(N)nc(N)c2-c2ccc(Cl)c(Cl)c2)cc1
- T/C [8]: 98 % of control
- T/C [9]: 100 % of control
- T/C [10]: 113 % of control

SMILES: NNc1nc(=O)[nH]nc1SCc1ccccc1
- T/C (endpoint: mean survival time, dose: 75.0 mg/kg/injection, schedule: Q01DX001 (ip), vehicle: saline): 96 % of control
- T/C (endpoint: mean survival time, dose: 150.0 mg/kg/injection, schedule: Q01DX001 (ip), vehicle: saline): 88 % of control

SMILES: OCCCNCc1ccccc1
- T/C [11]: 97 % of control
- T/C (endpoint: mean survival time, dose: 200.0 mg/kg/injection, schedule: Q01DX009 (ip), vehicle: saline): 96 % of control
- T/C (endpoint: mean survival time, dose: 400.0 mg/kg/injection, schedule: Q01DX009 (ip), vehicle: saline): 100 % of control

SMILES: N#CN=Nc1ccc(Cl)cc1
- T/C (endpoint: mean survival time, dose: 9.5 mg/kg/injection, schedule: Q01DX001 (ip), vehicle: other): 97 % of control
- T/C (endpoint: mean survival time, dose: 19.0 mg/kg/injection, schedule: Q01DX001 (ip), vehicle: other): 97 % of control
- T/C (endpoint: mean survival time, dose: 38.0 mg/kg/injection, schedule: Q01DX001 (ip), vehicle: other): 89 % of control

SMILES: CCCCCCCCCCCCNC1=CC(=O)c2nccnc2C1=O
- T/C (endpoint: mean survival time, dose: 6.25 mg/kg/injection, schedule: Q01DX009 (ip), vehicle: saline with Tween-80): 98 % of control
- T/C (endpoint: mean survival time, dose: 12.5 mg/kg/injection, schedule: Q01DX009 (ip), vehicle: saline with Tween-80): 95 % of control
- T/C (endpoint: mean survival time, dose: 25.0 mg/kg/injection, schedule: Q01DX009 (ip), vehicle: saline with Tween-80): 91 % of control
- T/C [1]: 91 % of control
- T/C [2]: 95 % of control

SMILES: O=C(C[n+]1ccccc1)N/N=C/c1ccccc1Cl
- T/C [2]: 105 % of control

SMILES: CCc1ccc(NC(=O)/C=C/c2ccccc2)cc1
- T/C [12]: 93 % of control
- T/C [13]: 89 % of control
- T/C [14]: 104 % of control

SMILES: O=C(Nc1ccccc1)c1ccccc1C(O)(c1ccccc1)c1ccc(Cl)cc1 (configuration not stated)
- T/C [8]: 95 % of control
- T/C [9]: 95 % of control
- T/C [10]: 97 % of control

SMILES: [CH3][Sn]1([CH3])[O]C2C(CO)OC(n3cnc4c(N)ncnc43)C2[O]1 (configuration not stated)
- T/C (endpoint: mean survival time, dose: 12.5 mg/kg/injection, schedule: Q01DX005 (ip), vehicle: other): 98 % of control
- T/C (endpoint: mean survival time, dose: 25.0 mg/kg/injection, schedule: Q01DX005 (ip), vehicle: other): 92 % of control
- T/C (endpoint: mean survival time, dose: 50.0 mg/kg/injection, schedule: Q01DX005 (ip), vehicle: other): 97 % of control

SMILES: O=C(O)CS (tested in a mixture with another compound)
- T/C (endpoint: mean survival time, dose: 12.5 mg/kg/injection, schedule: Q01DX009 (ip), vehicle: saline): 102 % of control
- T/C (endpoint: mean survival time, dose: 25.0 mg/kg/injection, schedule: Q01DX009 (ip), vehicle: saline): 93 % of control
- T/C [11]: 93 % of control

SMILES: CN1C(=O)C2C3CCC(C)(O3)C2C1=O (configuration not stated)
- T/C [8]: 98 % of control
- T/C [9]: 96 % of control
- T/C [10]: 98 % of control

SMILES: COc1ccc2[nH]c3c(c2c1)CNCC3
- T/C (endpoint: mean survival time, dose: 50.0 mg/kg/injection, schedule: Q01DX001 (ip), vehicle: saline): 106 % of control
- T/C [15]: 102 % of control
- T/C [16]: 113 % of control

SMILES: O=C(O)/C=C\SCCCC(=O)O
- T/C [3]: 94 % of control
- T/C [4]: 111 % of control
- T/C [5]: 103 % of control

SMILES: O=C(CSCCN1CCCCC1)N1c2ccccc2Sc2ccccc21
- T/C (endpoint: mean survival time, dose: 12.5 mg/kg/injection, schedule: Q04DX003 (ip), vehicle: saline): 104 % of control
- T/C (endpoint: mean survival time, dose: 25.0 mg/kg/injection, schedule: Q04DX003 (ip), vehicle: saline): 101 % of control
- T/C (endpoint: mean survival time, dose: 50.0 mg/kg/injection, schedule: Q04DX003 (ip), vehicle: saline): 101 % of control

SMILES: C(OC[C@H]1CC[C@@H](COCC2CO2)O1)C1CO1 (some centres not stated)
- T/C (endpoint: mean survival time, dose: 65.0 mg/kg/injection, schedule: Q01DX009 (ip), vehicle: saline): 107 % of control
- T/C (endpoint: mean survival time, dose: 108.0 mg/kg/injection, schedule: Q01DX009 (ip), vehicle: saline): 112 % of control
- T/C (endpoint: mean survival time, dose: 178.0 mg/kg/injection, schedule: Q01DX001 (ip), vehicle: saline): 100 % of control
- T/C (endpoint: mean survival time, dose: 180.0 mg/kg/injection, schedule: Q01DX009 (ip), vehicle: saline): 124 % of control
- T/C (endpoint: mean survival time, dose: 267.0 mg/kg/injection, schedule: Q01DX001 (ip), vehicle: saline): 103 % of control
- T/C [17]: 109 % of control
- T/C (endpoint: mean survival time, dose: 600.0 mg/kg/injection, schedule: Q01DX001 (ip), vehicle: saline): 121 % of control

SMILES: O=c1[nH]cnc2c1ncn2C1CC(CO)C(O)OC1O (configuration not stated)
- T/C [6]: 164 % of control
- T/C [7]: 188 % of control

SMILES: NC1CC(N)C(O)C(O)C1O (configuration not stated)
- T/C [15]: 95 % of control
- T/C [12]: 103 % of control
- T/C [16]: 100 % of control
- T/C [13]: 103 % of control
- T/C [17]: 94 % of control
- T/C [14]: 95 % of control

SMILES: O=C(NC(=S)Nc1cccc(F)c1)c1cccc(Br)c1
- T/C (endpoint: mean survival time, dose: 50.0 mg/kg/injection, schedule: Q01DX009 (ip), vehicle: other): 98 % of control and 104 % of control
- T/C (endpoint: mean survival time, dose: 50.0 mg/kg/injection, schedule: Q04DX003 (ip), vehicle: other): 111 % of control
- T/C (endpoint: mean survival time, dose: 100.0 mg/kg/injection, schedule: Q01DX001 (ip), vehicle: other): 102 % of control
- T/C (endpoint: mean survival time, dose: 100.0 mg/kg/injection, schedule: Q04DX002 (ip), vehicle: other): 95 % of control
- T/C (endpoint: mean survival time, dose: 100.0 mg/kg/injection, schedule: Q04DX003 (ip), vehicle: other): 104 % of control
- T/C (endpoint: mean survival time, dose: 200.0 mg/kg/injection, schedule: Q01DX001 (ip), vehicle: other): 98 % of control
- T/C (endpoint: mean survival time, dose: 200.0 mg/kg/injection, schedule: Q04DX002 (ip), vehicle: other): 91 % of control
- T/C (endpoint: mean survival time, dose: 200.0 mg/kg/injection, schedule: Q04DX003 (ip), vehicle: other): 102 % of control
- T/C (endpoint: mean survival time, dose: 400.0 mg/kg/injection, schedule: Q04DX002 (ip), vehicle: other): 101 % of control
- T/C (endpoint: mean survival time, dose: 400.0 mg/kg/injection, schedule: Q04DX003 (ip), vehicle: other): 106 % of control
